How the values were obtained:
Assay type in all cases: cell-based
mouse MSCs [1] = test: Oligodendrocyte-like differentiation of mouse MSCs, immunostaining (A2B5, O4, MBP); details: for Fraction of A2B5+ cells: mouse MSCs, cytokines added to growth medium; for expression of the oligodendrocyte progenitor marker A2B5 (FIGS. 4A-C): MSCs of C57-EGFP mice, NT-3 50 ng/ml, IL-1β 20 ng/ml
Procedure: (§1) Oligodendrocyte-like Differentiation of mouse MSCs: 3.2*10^3 mMSCs per well from transgenic EGFP+ C57/b1 mice (that have constitutive expression of EGFP in all their cells), were cultured in growth medium (15% FCS, 5% HS, 2 mM L-glutamine, 0.001% β-mercaptoethanol, 10 ng/ml epidermal growth factor, 100 U/ml Penicillin, 100 μg/ml Streptomycin and 12.5 U/ml Nystatin in α-DMEM), and then transferred to mediums containing different cytokines, hormones and growth factors (See table 2 hereinbelow) that play roles in oligodendrocyte lineage differentiation process, to examine the effects of those substances on the cells. The cells were incubated in the differentiation mediums for 48 hours or 6 days, and then were fixed in 4% PFA for 5 minutes in RT and 20 minutes in 4° C. and photographed for morphological changes.
The fixed cells were then blocked in 5% goat serum (GS) stained with mouse anti-A2B5 antibodies (1:200; Chemicon) overnight, 4° C., washed twice in 5% GS, and appropriate goat anti mouse second Cy3 antibody (1:500; Jackson labs) for one hour, RT, in the dark. The cells were then examined for fluorescence and photographed by fluorescence Olympus IX70-S8F2 microscope with fluorescent light source and a U-MNU filter cube (Olympus). In all immuno-staining experiments, a sample was also stained with IInd antibodies only, as control, to detect any non-specific staining.

mouse MSCs [2] = test: Oligodendrocyte-like differentiation of mouse MSCs, morphology; details: MSCs of C57-EGFP transgenic mice, growth medium plus cytokines, 6 days
Procedure: as §1

mouse MSCs [3] = test: FACS analysis of differentiated mouse cells (A2B5, O4); details: EGFP mMSCs, IL-1β 20 ng/ml in growth medium, 4 days
Procedure: FIGS. 5A-D are graphs and tables illustrating an analysis of mouse MSCs following differentiation protocol in vitro. MSCs from the bone marrow of transgenic EGFP-expressing transgenic mice (A) were cultured in differentiation medium composed of standard growth medium supplemented by IL-1β (20 ng/ml), or in standard growth medium only (control; B) for 4 days. The cells were then stained by antibodies against oligodendrocyte progenitor marker A2B5, and analyzed by flow cytometry (A2B5 staining seen as black lines). Nonspecific staining by second antibody only was used as control (nonspecific staining seen as red lines), and quantitative measurements were made from the cross points of the two lines. Quantitative measurements (D) were made either on the total population (first row), or on the population with very small-sized events omitted (see gated area in A; second row in D).
FACS analysis of differentiated mouse cells: MSCs were harvested from the tissue culture flasks following […] in differentiation medium (See Table 3, in the Results, #4), alongside undifferentiated MSCs, and centrifuged at 1000×rpm for 10 minutes at room temperature. […] After two washes in flow buffer, the cells were resuspended in 0.5 ml PBS and were studied by a fluorescence activated cell sorter (FACS) Calibur™ using an argon ion laser, adjusted to an excitation wavelength of 488 nm (Becton Dickinson). […]

Molecule | Fraction of A2B5+ cells (mouse MSCs [1]; 48 hours) | cell morphology (FIGS. 3A-F) (mouse MSCs [2]) | expression of the oligodendrocyte progenitor marker A2B5 (FIGS. 4A-C) (mouse MSCs [1]; 6 days) | Fraction of A2B5+ cells (mouse MSCs [1]; 6 days) | percentage A2B5+ cells (FACS analysis) (mouse MSCs [3])
CC1=C(/C=C/C(C)=C/C=C/C(C)=C/C(=O)O)C(C)(C)CCC1 [Retinoic acid, reference compound] | 0% |  |  |  | 
Interleukin-1β: interleukin 1 beta, cytokine from PeproTech added to growth medium | 1% | did not alter drastically | acquiring expression | 3.8% | changes. Low
Neurotrophin-3: neurotrophin 3, human polypeptide or mammalian homologue, from PeproTech (protein, UniProt P20783 139-257, looked up, Neurotrophin-3, neurotrophin 3, human polypeptide or mammalian homologue, from PeproTech) Neurotrophin-3: YAEHKSHRGEYSVCDSESLWVTDKSSAIDIRGHQVTVLGEIKTGNSPVKQYFYETRCKEARPVKNGCRGIDDKHWNSQCKTSQTYVRALTSENNKLVGWRWIRIDTSCVCALSRKIGRT | 1.9% | did not alter drastically | acquiring expression | 2.7% | 

Source: patent US20100021434A1, “Isolated Oligodendrocyte-Like Cells and Populations Comprising Same for the Treatment of CNS Diseases” (Ramot At Tel Aviv University Ltd., priority 2005, published 2010)
